Measurements from patent publication US20240309016A1, “MACROCYCLIC HETEROCYCLE COMPOUNDS AND USE THEREOF” (TAKEDA PHARMACEUTICAL COMPANY LIMITED, priority 2023, published 2024).

molecular target: T1, human OX2 receptor (Homo sapiens, UniProt O43614); experiment: Measurement of orexin type 2 receptor agonist activity (Experimental Example 2; Fluo-4 AM calcium fluorescence, FDSS μCELL); type: cell-based; conditions: compound at 3 μM; CHO cells expressing human OX2 receptor; DMSO = 0%, 10 nM orexin A (human) = 100%
T1 construct: expressed in transfected cells
T1 sequence (O43614 1-444): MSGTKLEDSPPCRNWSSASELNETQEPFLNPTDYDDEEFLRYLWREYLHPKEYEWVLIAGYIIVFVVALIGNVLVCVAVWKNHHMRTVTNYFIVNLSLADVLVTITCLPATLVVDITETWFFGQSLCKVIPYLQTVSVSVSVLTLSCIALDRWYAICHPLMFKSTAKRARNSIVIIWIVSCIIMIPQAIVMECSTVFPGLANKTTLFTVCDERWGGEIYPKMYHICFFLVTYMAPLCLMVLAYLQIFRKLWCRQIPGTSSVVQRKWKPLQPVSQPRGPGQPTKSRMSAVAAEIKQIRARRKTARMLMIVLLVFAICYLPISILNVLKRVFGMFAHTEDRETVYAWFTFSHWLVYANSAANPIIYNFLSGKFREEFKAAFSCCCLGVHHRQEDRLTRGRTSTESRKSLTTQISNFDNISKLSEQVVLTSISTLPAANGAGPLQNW
Experimental: In order to obtain cell clones that stably express human orexin type 2 receptor, human orexin type 2 (residues 1-444, NCBI Reference Sequence: AK314279) was constructed in a pcDNA3.1 (+) vector (Invitrogen) to express in mammalian cells. This plasmid DNA was transfected into CHO-K1 cells by electroporation, and stable clones were obtained by limiting dilution using resistance to G418 as a selection marker.
CHO cells in which human OX2 receptor was forcibly expressed were seeded at 10,000 cells/well into a 384-well black transparent bottom plate (BD falcon), and were incubated at 37° C., 5% CO2 for 1 day after incubation at room temperature for 30 minutes. After removing the cell plate medium, assay buffer containing calcium indicator A (HBSS (Thermo Fisher Scientific), 20 mM HEPES (Thermo Fisher Scientific), 0.1% BSA (Sigma-Aldrich), 2.5 μg/mL Fluo-4 AM (Dojin Kagaku), 0.08% Pluronic F127 (Dojin Kagaku), 1.25 mM probenecid (Dojin Kagaku)) was added at 30 μL/well. After incubation in a 5% CO2 incubator at 37° C. for 30 minutes, it was incubated at room temperature for another 30 minutes. Add 10 μL/well of the test compound diluted with assay buffer B (HBSS, 20 mM HEPES, 0.1% BSA), and use FDSS μCELL (Hamamatsu Photonics) to measure the fluorescence value every 1 second for 1 minute, and then every 2 seconds for 1 minute. It was measured for 1 minute and 40 seconds. The amount of fluorescence value when DMSO is added instead of the test compound is defined as 0%, and the amount of fluorescence value when orexin A (human) (Peptide Institute) with a final concentration of 10 nM is added is defined as 100%. The activity (%) of the test compound was calculated. Table 2-1, 2-2, 2-3, and 2-4 show the activity of each compound at a concentration of 3 μM.

Row | SMILES | OX2R agonist activity (3 μM, %) [%]
1 | CS(=O)(=O)N[C@H]1[C@@H](F)CN2C(=O)COc3ccc(Cl)c(n3)Cc3cccc(c3F)C[C@@H]12 [Example 67, N-[(15aS,16R,17S)-7-chloro-17,20-difluoro-1-oxo-1,2,15a,16,17,18-hexahydro-9H,15H-4,8-(azeno)-14,10-(metheno)pyrrolo[1,2-d][1,4]oxazacycloheptadecin-16-yl]methanesulfonamide] | 103
2 | Cc1cnc2nc1Oc1cccc(c1F)C[C@H]1[C@@H](NS(C)(=O)=O)C(F)(F)CN1C(=O)C1CCN21 (stereo partly drawn) [Example 52, N-[(15aS,16R)-17,17,21-trifluoro-7-methyl-20-oxo-1,2,15a,16,17,18,20,20a-octahydro-15H-4,8-(azeno)-10,14-(metheno)azeto[1,2-g]pyrrolo[1,2-j][1,5,7,10]oxatriazacyclo-heptadecin-16-yl]methanesulfonamide (optical isomer)] | 93
3 | CCS(=O)(=O)N[C@H]1[C@@H](F)CN2C(=O)COc3ccc(Br)c(n3)Oc3cccc(c3)C[C@@H]12 [Example 76, N-[(15aS,16R,17S)-7-bromo-17-fluoro-1-oxo-1,2,15a,16,17,18-hexahydro-15H-4,8-(azeno)-14,10-(metheno)pyrrolo[1,2-d][1,12,4]dioxazacyclo-heptadecin-16-yl]ethanesulfonamide] | 96
4 | CS(=O)(=O)N[C@@H]1[C@@H]2Cc3cccc(c3F)Oc3nc(c(F)cc3Cl)CNC(=O)N2CC1(F)F [Example 30, N-[(15aS,16R)-7-chloro-5,17,17,20-tetrafluoro-1-oxo-2,3,15a,16,17,18-hexahydro-1H,15H-4,8-(azeno)-14,10-(metheno)pyrrolo[1,2-j][1,8,10]oxadiazacyclo-heptadecin-16-yl]methanesulfonamide] | 102
5 | CCS(=O)(=O)N[C@H]1[C@@H](F)CN2C(=O)NCc3ncc(C)c(n3)Oc3cccc(c3F)C[C@@H]12 [Example 55, N-[(15aS,16R,17S)-17,20-difluoro-7-methyl-1-oxo-2,3,15a,16,17,18-hexahydro-1H,15H-4,8-(azeno)-10,14-(metheno)pyrrolo[1,2-j][1,5,8,10]oxatriazacyclo-heptadecin-16-yl]ethanesulfonamide] | 107
6 | Cc1ccc2nc1Oc1cccc(c1F)C[C@H]1[C@@H](NS(=O)(=O)C3CC3)C(F)(F)CN1C(=O)NC2 [Example 23, N-[(15aS,16R)-17,17,20-trifluoro-7-methyl-1-oxo-2,3,15a,16,17,18-hexahydro-1H,15H-4,8-(azeno)-14,10-(metheno)pyrrolo[1,2-j][1,8,10]oxadiazacyclo-heptadecin-16-yl]cyclopropanesulfonamide] | 96
7 | CCS(=O)(=O)N[C@H]1[C@@H](F)CN2C(=O)COc3ccc(C)c(n3)Oc3cccc(c3)C[C@@H]12 [Example 78, N-[(15aS,16R,17S)-17-fluoro-7-methyl-1-oxo-1,2,15a,16,17,18-hexahydro-15H-4,8-(azeno)-14,10-(metheno)pyrrolo[1,2-d][1,12,4]dioxazacyclo-heptadecin-16-yl]ethanesulfonamide] | 97
8 | CCS(=O)(=O)N[C@@H]1[C@@H]2Cc3cc(F)cc(c3)Oc3nc(ccc3C)CNC(=O)N2CC1(F)F (relative stereo) [Example 89, N-[rel-(15aS,16R)-12,17,17-trifluoro-7-methyl-1-oxo-2,3,15a,16,17,18-hexahydro-1H,15H-4,8-(azeno)-14,10-(metheno)pyrrolo[1,2-j][1,8,10]oxadiazacyclo-heptadecin-16-yl]ethanesulfonamide (optical isomer)] | 114
9 | CCS(=O)(=O)N[C@@H]1[C@@H]2Cc3cccc(c3F)Oc3nc(ccc3C(F)F)CNC(=O)N2CC1(F)F [Example 29, N-[(15aS,16R)-7-(difluoromethyl)-17,17,20-trifluoro-1-oxo-2,3,15a,16,17,18-hexahydro-1H,15H-4,8-(azeno)-10,14-(metheno)pyrrolo[1,2-j][1,8,10]oxadiazacyclo-heptadecin-16-yl]ethanesulfonamide] | 100
10 | CCS(=O)(=O)N[C@H]1[C@@H](F)CN2C(=O)N(C)Cc3ccc(Cl)c(n3)Oc3cccc(c3F)C[C@@H]12 [Example 73, N-[(15aS,16R,17S)-7-chloro-17,20-difluoro-2-methyl-1-oxo-2,3,15a,16,17,18-hexahydro-1H,15H-4,8-(azeno)-10,14-(metheno)pyrrolo[1,2-j][1,8,10]oxadiazacyclo-heptadecin-16-yl]ethanesulfonamide] | 101
11 | CN(C)S(=O)(=O)N[C@@H]1[C@@H]2Cc3cccc(c3F)Oc3nc(ccc3Cl)CNC(=O)N2CC1(F)F [Example 13, N′-[(15aS,16R)-7-chloro-17,17,20-trifluoro-1-oxo-2,3,15a,16,17,18-hexahydro-1H,15H-4,8-(azeno)-14,10-(metheno)pyrrolo[1,2-j][1,8,10]oxadiazacyclo-heptadecin-16-yl]-N,N-dimethylsulfuric diamide] | 99
12 | CCS(=O)(=O)N[C@@H]1[C@@H]2Cc3cccc(c3F)Oc3nc(ccc3C)OCC(=O)N2CC1(F)F [Example 45, N-[(15aS,16R)-17,17,20-trifluoro-7-methyl-1-oxo-1,2,15a,16,17,18-hexahydro-15H-4,8-(azeno)-14,10-(metheno)pyrrolo[1,2-d][1,12,4]dioxazacyclo-heptadecin-16-yl]ethanesulfonamide] | 105
13 | CCS(=O)(=O)N[C@@H]1[C@@H]2Cc3cccc(c3F)Oc3nc(c(F)cc3Cl)CNC(=O)N2CC1(F)F [Example 35, N-[(15aS,16R)-7-chloro-5,17,17,20-tetrafluoro-1-oxo-2,3,15a,16,17,18-hexahydro-1H,15H-4,8-(azeno)-10,14-(metheno)pyrrolo[1,2-j][1,8,10]oxadiazacyclo-heptadecin-16-yl]ethanesulfonamide] | 93
14 | Cc1ncc2nc1Oc1cccc(c1F)C[C@H]1[C@@H](NS(C)(=O)=O)C(F)(F)CN1C(=O)CO2 [Example 65, N-[(15aS,16R)-17,17,20-trifluoro-7-methyl-1-oxo-1,2,15a,16,17,18-hexahydro-15H-4,8-(azeno)-10,14-(metheno)pyrrolo[1,2-j][1,7,4,10]dioxadiazacyclo-heptadecin-16-yl]methanesulfonamide] | 102
15 | CN1Cc2ccc(Cl)c(n2)Oc2cccc(c2F)C[C@H]2[C@@H](NS(C)(=O)=O)C(F)(F)CN2C1=O [Example 57, N-[(15aS,16R)-7-chloro-17,17,20-trifluoro-2-methyl-1-oxo-2,3,15a,16,17,18-hexahydro-1H,15H-4,8-(azeno)-14,10-(metheno)pyrrolo[1,2-j][1,8,10]oxadiazacyclo-heptadecin-16-yl]methanesulfonamide] | 108
16 | CS(=O)(=O)N[C@@H]1[C@@H]2Cc3cccc(c3F)Oc3nc(ccc3Cl)CN(CC(F)F)C(=O)N2CC1(F)F [Example 60, N-[(15aS,16R)-7-chloro-2-(2,2-difluoroethyl)-17,17,20-trifluoro-1-oxo-2,3,15a,16,17,18-hexahydro-1H,15H-4,8-(azeno)-14,10-(metheno)pyrrolo[1,2-j][1,8,10]oxadiazacyclo-heptadecin-16-yl]methanesulfonamide] | 104
17 | CCS(=O)(=O)N[C@H]1[C@@H](F)CN2C(=O)NCc3ccc(C)c(n3)Oc3cccc(c3)C[C@@H]12 [Example 42, N-[(15aS,16R,17S)-17-fluoro-7-methyl-1-oxo-2,3,15a,16,17,18-hexahydro-1H,15H-4,8-(azeno)-14,10-(metheno)pyrrolo[1,2-j][1,8,10]oxadiazacyclo-heptadecin-16-yl]ethanesulfonamide] | 101
18 | CS(=O)(=O)N[C@@H]1[C@@H]2Cc3cccc(c3F)Oc3nc(ncc3Cl)OCC(=O)N2CC1(F)F [Example 64, N-[(15aS,16R)-7-chloro-17,17,20-trifluoro-1-oxo-1,2,15a,16,17,18-hexahydro-15H-4,8-(azeno)-10,14-(metheno)pyrrolo[2,1-n][1,7,3,15]dioxadiazacyclo-heptadecin-16-yl]methanesulfonamide] | 105
